Experimental data reported in the supplement of paper PMC10307832.

Legend:
Test in all cases: relative viability (nuclei count vs DMSO), 5 days (fraction); higher = more cells survive
[1] = test system: ChaGo-K-1
Procedure, shortened: (§1)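 Dosing by pin tool came one day after lung cancer cell lines were seeded in 1536-well plates, using either one drug or a fixed anchor-drug dose plus five library-drug doses (not always all listed) in √10 steps. After 5 days, nuclei were counted on 4× images. Relative viability is treated-well nuclei count divided by vehicle-well nuclei count, and values are medians of duplicate plates.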

[2] = test system: LXF-289
Procedure, shortened: as §1

[3] = test system: PC-3 [JPC-3]
Procedure, shortened: as §1

[4] = test system: NCI-H661
Procedure, shortened: as §1

[5] = test system: NCI-H1651
Procedure, shortened: as §1

[6] = test system: NCI-H1355
Procedure, shortened: as §1

[7] = test system: NCI-H838
Procedure, shortened: as §1

[8] = test system: NCI-H1975
Procedure, shortened: as §1

[9] = test system: NCI-H2342
Procedure, shortened: as §1

[10] = test system: NCI-H650
Procedure, shortened: as §1

[11] = test system: LCLC-97TM1
Procedure, shortened: as §1

[12] = test system: NCI-H596
Procedure, shortened: as §1

[13] = test system: NCI-H1666
Procedure, shortened: as §1

[14] = test system: HCC-78
Procedure, shortened: as §1

[15] = test system: LK-2
Procedure, shortened: as §1

[16] = test system: LU99A
Procedure, shortened: as §1

[17] = test system: NCI-H358
Procedure, shortened: as §1

[18] = test system: NCI-H1944
Procedure, shortened: as §1

[19] = test system: BEN
Procedure, shortened: as §1

[20] = test system: NCI-H2087
Procedure, shortened: as §1

[21] = test system: SK-MES-1
Procedure, shortened: as §1

[22] = test system: LC-2-ad
Procedure, shortened: as §1

## Cc1sc2c(c1C)C(c1ccc(Cl)cc1)=N[C@@H](CC(=O)OC(C)(C)C)c1nnc(C)n1-2 [JQ1] + O=C(CCCCCCC(=O)Nc1ccccc1)NO [Vorinostat] (partner 1 µM)
[1]; first compound 0.04 µM
  relative viability: 0.752
[1]; first compound 0.1265 µM
  relative viability: 0.57
[1]; first compound 0.4 µM
  relative viability: 0.639
[1]; first compound 1.265 µM
  relative viability: 0.505
[1]; first compound 4 µM
  relative viability: 0.491
[2]; first compound 0.04 µM
  relative viability: 0.765
[2]; first compound 0.1265 µM
  relative viability: 0.693
[2]; first compound 0.4 µM
  relative viability: 0.665
[2]; first compound 1.265 µM
  relative viability: 0.582
[2]; first compound 4 µM
  relative viability: 0.577
[3]; first compound 0.04 µM
  relative viability: 0.816
[3]; first compound 0.1265 µM
  relative viability: 0.716
[3]; first compound 0.4 µM
  relative viability: 0.67
[3]; first compound 1.265 µM
  relative viability: 0.537
[3]; first compound 4 µM
  relative viability: 0.377
[4]; first compound 0.04 µM
  relative viability: 0.766
[4]; first compound 0.1265 µM
  relative viability: 0.809
[4]; first compound 0.4 µM
  relative viability: 0.677
[4]; first compound 1.265 µM
  relative viability: 0.493
[4]; first compound 4 µM
  relative viability: 0.456
[5]; first compound 0.04 µM
  relative viability: 0.615
[5]; first compound 0.1265 µM
  relative viability: 0.472
[5]; first compound 0.4 µM
  relative viability: 0.445
[5]; first compound 1.265 µM
  relative viability: 0.416
[5]; first compound 4 µM
  relative viability: 0.307
[6]; first compound 0.04 µM
  relative viability: 0.663
[6]; first compound 0.1265 µM
  relative viability: 0.712
[6]; first compound 0.4 µM
  relative viability: 0.541
[6]; first compound 1.265 µM
  relative viability: 0.401
[6]; first compound 4 µM
  relative viability: 0.281
[7]; first compound 0.04 µM
  relative viability: 0.703
[7]; first compound 0.1265 µM
  relative viability: 0.322
[7]; first compound 0.4 µM
  relative viability: 0.488
[7]; first compound 1.265 µM
  relative viability: 0.277
[7]; first compound 4 µM
  relative viability: 0.319
[8]; first compound 0.04 µM
  relative viability: 0.729
[8]; first compound 0.1265 µM
  relative viability: 0.6
[8]; first compound 0.4 µM
  relative viability: 0.64
[8]; first compound 1.265 µM
  relative viability: 0.325
[8]; first compound 4 µM
  relative viability: 0.263
[9]; first compound 0.04 µM
  relative viability: 0.722
[9]; first compound 0.1265 µM
  relative viability: 0.592
[9]; first compound 0.4 µM
  relative viability: 0.87
[9]; first compound 1.265 µM
  relative viability: 0.73
[9]; first compound 4 µM
  relative viability: 0.714
[10]; first compound 0.04 µM
  relative viability: 0.43
[10]; first compound 0.1265 µM
  relative viability: 0.295
[10]; first compound 0.4 µM
  relative viability: 0.425
[10]; first compound 1.265 µM
  relative viability: 0.242
[10]; first compound 4 µM
  relative viability: 0.192
[11]; first compound 0.04 µM
  relative viability: 0.603
[11]; first compound 0.1265 µM
  relative viability: 0.532
[11]; first compound 0.4 µM
  relative viability: 0.25
[11]; first compound 1.265 µM
  relative viability: 0.121
[11]; first compound 4 µM
  relative viability: 0.0762
[12]; first compound 0.04 µM
  relative viability: 0.683
[12]; first compound 0.1265 µM
  relative viability: 0.643
[12]; first compound 0.4 µM
  relative viability: 0.436
[12]; first compound 1.265 µM
  relative viability: 0.292
[12]; first compound 4 µM
  relative viability: 0.311
[13]; first compound 0.04 µM
  relative viability: 0.972
[13]; first compound 0.1265 µM
  relative viability: 0.944
[13]; first compound 0.4 µM
  relative viability: 0.988
[13]; first compound 1.265 µM
  relative viability: 0.823
[13]; first compound 4 µM
  relative viability: 0.788
[14]; first compound 0.04 µM
  relative viability: 0.436
[14]; first compound 0.1265 µM
  relative viability: 0.398
[14]; first compound 0.4 µM
  relative viability: 0.466
[14]; first compound 1.265 µM
  relative viability: 0.312
[14]; first compound 4 µM
  relative viability: 0.329
[15]; first compound 0.04 µM
  relative viability: 0.301
[15]; first compound 0.1265 µM
  relative viability: 0.233
[15]; first compound 0.4 µM
  relative viability: 0.281
[15]; first compound 1.265 µM
  relative viability: 0.128
[15]; first compound 4 µM
  relative viability: 0.101
[16]; first compound 0.04 µM
  relative viability: 0.61
[16]; first compound 0.4 µM
  relative viability: 0.363
[16]; first compound 1.265 µM
  relative viability: 0.278
[16]; first compound 4 µM
  relative viability: 0.188
[17]; first compound 0.04 µM
  relative viability: 0.662
[17]; first compound 0.1265 µM
  relative viability: 0.628
[17]; first compound 0.4 µM
  relative viability: 0.533
[17]; first compound 1.265 µM
  relative viability: 0.161
[17]; first compound 4 µM
  relative viability: 0.134
[18]; first compound 0.04 µM
  relative viability: 0.524
[18]; first compound 0.1265 µM
  relative viability: 0.405
[18]; first compound 0.4 µM
  relative viability: 0.325
[18]; first compound 1.265 µM
  relative viability: 0.323
[18]; first compound 4 µM
  relative viability: 0.29
[19]; first compound 0.04 µM
  relative viability: 0.503
[19]; first compound 0.1265 µM
  relative viability: 0.545
[19]; first compound 0.4 µM
  relative viability: 0.494
[19]; first compound 1.265 µM
  relative viability: 0.456
[19]; first compound 4 µM
  relative viability: 0.351
[20]; first compound 0.04 µM
  relative viability: 0.63
[20]; first compound 0.1265 µM
  relative viability: 0.38
[20]; first compound 0.4 µM
  relative viability: 0.668
[20]; first compound 1.265 µM
  relative viability: 0.316
[20]; first compound 4 µM
  relative viability: 0.127
[21]; first compound 0.04 µM
  relative viability: 1.1
[21]; first compound 0.1265 µM
  relative viability: 0.813
[21]; first compound 0.4 µM
  relative viability: 0.464
[21]; first compound 1.265 µM
  relative viability: 0.32
[21]; first compound 4 µM
  relative viability: 0.273
[22]; first compound 0.04 µM
  relative viability: 0.699
[22]; first compound 0.1265 µM
  relative viability: 0.396
[22]; first compound 0.4 µM
  relative viability: 0.624
[22]; first compound 1.265 µM
  relative viability: 0.273
[22]; first compound 4 µM
  relative viability: 0.3
